Test results taken from patent US20240293405A1, “(1H-PYRROLO[2,3-B]PYRIDIN-1-YL)PYRIMIDIN-2-YL-AMINO-PHENYL-ACRYLAMIDE INHIBITORS OF EGFR FOR USE IN THE TREATMENT OF BRAIN TUMORS” (Dana-Farber Cancer Institute, Inc., priority 2021, published 2024).
Entries after “also recorded” stand apart in the source; their conditions may differ. Where two headings read alike, the source gives them in different places.

Assays:
[1] = tested on: phosphorylated EGFR and cell viability; experiment: In vitro GBM studies, summary (phosphorylated EGFR and cell viability); format: cell-based; conditions: GBM models; read-out: IC50 range in in vitro studies targeting decreases in phosphorylated EGFR and cell viability
Source text: Compound 1, a third-generation tyrosine kinase inhibitor, is under development for GBM (Wang 2020) Compound 1 binds covalently to its target.

293-EGFRvIII cells = experiment: Cell viability of 293-EGFRvIII cells (CellTiter-Glo); format: cell-based, human; conditions: for IC50: Homo sapiens, read-out: IC50, viability of 293-EGFRvIII cells
Method: Cells were seeded in 96-well plates at a density of 1,000 cells per well and treated with two-fold serial dilutions of compounds with a starting concentration of 20 μM. Cell viability was assessed after three days of treatment by CellTiter-Glo (Promega). Curve fitting analysis and IC50 value determination were performed using GraphPad Prism 8.

PDGFRA = PDGFRA (Homo sapiens, UniProt P16234); experiment: Kinase binding constant (Kd)
Sequence of PDGFRA (P16234 24-1089): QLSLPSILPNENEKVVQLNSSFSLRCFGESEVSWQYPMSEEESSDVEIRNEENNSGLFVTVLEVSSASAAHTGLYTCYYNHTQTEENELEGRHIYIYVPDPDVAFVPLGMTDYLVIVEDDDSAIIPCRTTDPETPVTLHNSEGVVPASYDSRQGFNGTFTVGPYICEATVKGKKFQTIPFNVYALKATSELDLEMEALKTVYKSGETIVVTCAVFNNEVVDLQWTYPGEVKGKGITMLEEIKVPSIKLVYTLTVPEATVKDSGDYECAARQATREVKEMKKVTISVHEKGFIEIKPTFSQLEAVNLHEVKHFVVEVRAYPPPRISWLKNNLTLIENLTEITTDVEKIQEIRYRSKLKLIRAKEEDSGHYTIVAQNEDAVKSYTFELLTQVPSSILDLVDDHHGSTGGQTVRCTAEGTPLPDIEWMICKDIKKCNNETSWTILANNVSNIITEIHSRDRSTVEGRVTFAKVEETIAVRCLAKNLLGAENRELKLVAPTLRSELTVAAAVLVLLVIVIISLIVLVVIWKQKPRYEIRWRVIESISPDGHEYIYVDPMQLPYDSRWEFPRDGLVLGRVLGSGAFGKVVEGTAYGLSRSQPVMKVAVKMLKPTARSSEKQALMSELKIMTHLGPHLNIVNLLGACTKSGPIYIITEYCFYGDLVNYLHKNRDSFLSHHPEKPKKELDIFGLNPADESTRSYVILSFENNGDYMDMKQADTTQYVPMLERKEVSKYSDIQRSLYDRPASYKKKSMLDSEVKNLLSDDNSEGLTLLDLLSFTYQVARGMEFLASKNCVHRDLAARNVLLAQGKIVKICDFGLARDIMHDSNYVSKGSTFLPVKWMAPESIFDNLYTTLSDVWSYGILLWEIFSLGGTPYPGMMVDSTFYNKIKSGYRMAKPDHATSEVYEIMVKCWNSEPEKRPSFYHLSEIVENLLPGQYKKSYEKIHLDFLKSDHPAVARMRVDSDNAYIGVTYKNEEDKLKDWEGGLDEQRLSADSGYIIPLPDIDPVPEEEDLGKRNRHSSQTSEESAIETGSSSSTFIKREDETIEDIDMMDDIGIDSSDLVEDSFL
Method: (§1) EGFR amplifications and/or mutations are common in GBM, estimated to occur in over 50% of patients.
(§2) Compound 1 and Compound 2 (major metabolite) were evaluated in a panel of 468 human kinases and disease relevant mutant variants. Compound 1 and Compound 2 bound to few non-mutant kinases at <1% of control. […] While there is some variability between Compound 1 and Compound 2, it is clear that both compounds are very effective at binding to a large panel of mutant kinases. […] Binding constant to wild type EGFR was 4.9 nM.

ALK = ALK (Homo sapiens, UniProt Q9UM73); experiment: Kinase binding constant (Kd)
Sequence of ALK (Q9UM73 19-1620): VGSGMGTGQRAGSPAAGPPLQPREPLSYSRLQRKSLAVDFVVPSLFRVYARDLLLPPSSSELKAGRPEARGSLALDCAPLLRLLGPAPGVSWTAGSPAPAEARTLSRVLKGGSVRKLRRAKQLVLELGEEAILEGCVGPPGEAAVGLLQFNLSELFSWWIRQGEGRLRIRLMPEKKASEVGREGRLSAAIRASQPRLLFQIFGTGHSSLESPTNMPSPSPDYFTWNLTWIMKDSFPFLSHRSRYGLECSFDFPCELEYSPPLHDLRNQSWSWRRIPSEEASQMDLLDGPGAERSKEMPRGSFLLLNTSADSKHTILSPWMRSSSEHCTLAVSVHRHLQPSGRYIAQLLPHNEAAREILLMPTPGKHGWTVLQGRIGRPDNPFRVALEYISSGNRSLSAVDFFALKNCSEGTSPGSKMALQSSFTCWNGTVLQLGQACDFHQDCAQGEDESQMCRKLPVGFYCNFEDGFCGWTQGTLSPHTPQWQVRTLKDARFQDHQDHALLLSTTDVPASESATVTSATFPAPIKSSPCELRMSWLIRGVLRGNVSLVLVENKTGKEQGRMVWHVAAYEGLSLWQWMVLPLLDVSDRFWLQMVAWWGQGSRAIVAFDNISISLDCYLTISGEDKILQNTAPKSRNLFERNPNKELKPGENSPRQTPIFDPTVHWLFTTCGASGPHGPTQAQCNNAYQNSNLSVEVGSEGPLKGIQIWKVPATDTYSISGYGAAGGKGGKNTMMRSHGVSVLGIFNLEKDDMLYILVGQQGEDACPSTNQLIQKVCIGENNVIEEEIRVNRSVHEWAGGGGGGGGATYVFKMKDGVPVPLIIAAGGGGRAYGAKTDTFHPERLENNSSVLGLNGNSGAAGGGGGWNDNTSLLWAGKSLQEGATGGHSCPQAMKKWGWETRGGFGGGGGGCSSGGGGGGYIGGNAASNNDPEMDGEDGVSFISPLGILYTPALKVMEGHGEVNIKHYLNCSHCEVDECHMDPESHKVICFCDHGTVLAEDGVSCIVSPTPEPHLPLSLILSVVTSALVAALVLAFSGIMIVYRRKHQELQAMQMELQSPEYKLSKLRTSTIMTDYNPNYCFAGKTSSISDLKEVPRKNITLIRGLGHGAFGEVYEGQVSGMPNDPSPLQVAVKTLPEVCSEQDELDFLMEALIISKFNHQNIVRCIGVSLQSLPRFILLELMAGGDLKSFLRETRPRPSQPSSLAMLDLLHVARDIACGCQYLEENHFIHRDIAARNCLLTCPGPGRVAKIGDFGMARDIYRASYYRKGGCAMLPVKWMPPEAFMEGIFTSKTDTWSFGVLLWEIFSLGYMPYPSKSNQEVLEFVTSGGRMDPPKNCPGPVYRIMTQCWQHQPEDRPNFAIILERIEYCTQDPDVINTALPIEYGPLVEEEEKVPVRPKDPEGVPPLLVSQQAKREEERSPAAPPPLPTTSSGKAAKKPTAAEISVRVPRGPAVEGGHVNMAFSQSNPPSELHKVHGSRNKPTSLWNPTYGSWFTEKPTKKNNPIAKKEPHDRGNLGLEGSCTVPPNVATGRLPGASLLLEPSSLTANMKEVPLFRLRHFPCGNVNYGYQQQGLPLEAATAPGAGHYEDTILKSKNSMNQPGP
Method: as §1, §2

PDGFRB = PDGFRB (Homo sapiens, UniProt P09619); experiment: Kinase binding constant (Kd)
Sequence of PDGFRB (P09619 33-1106): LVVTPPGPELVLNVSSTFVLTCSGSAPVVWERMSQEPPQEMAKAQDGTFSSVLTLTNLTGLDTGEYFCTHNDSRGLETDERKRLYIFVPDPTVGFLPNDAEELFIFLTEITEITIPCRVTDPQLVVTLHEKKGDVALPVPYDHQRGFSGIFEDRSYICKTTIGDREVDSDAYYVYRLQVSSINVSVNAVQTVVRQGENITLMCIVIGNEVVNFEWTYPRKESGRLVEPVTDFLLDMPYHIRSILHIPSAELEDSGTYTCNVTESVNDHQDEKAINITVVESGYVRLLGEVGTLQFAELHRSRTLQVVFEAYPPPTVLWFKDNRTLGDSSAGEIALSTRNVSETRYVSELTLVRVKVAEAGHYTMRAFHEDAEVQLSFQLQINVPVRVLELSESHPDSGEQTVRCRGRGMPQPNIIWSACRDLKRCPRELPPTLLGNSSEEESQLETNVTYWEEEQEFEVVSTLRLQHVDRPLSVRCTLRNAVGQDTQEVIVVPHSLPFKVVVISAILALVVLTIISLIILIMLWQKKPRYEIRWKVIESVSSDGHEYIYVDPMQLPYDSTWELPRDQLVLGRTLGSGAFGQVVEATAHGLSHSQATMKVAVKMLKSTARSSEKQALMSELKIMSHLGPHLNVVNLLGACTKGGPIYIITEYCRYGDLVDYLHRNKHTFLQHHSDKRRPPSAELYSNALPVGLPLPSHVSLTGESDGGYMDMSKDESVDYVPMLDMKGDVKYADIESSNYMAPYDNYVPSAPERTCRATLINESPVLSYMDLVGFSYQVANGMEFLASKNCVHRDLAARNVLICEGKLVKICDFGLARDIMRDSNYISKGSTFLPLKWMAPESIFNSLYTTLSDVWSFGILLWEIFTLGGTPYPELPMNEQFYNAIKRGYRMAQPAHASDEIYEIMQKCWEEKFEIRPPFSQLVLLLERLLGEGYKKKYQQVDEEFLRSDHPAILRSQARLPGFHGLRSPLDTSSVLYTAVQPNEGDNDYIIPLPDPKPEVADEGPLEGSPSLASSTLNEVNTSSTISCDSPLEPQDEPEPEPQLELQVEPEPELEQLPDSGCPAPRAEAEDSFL
Method: as §1, §2

[2] = Skin toxicity in mice (visual observation); format: in vivo; conditions: Compound 1 10-50 mg/kg/day vs osimertinib 10-25 mg/kg/day
Source text: . (osmertinib, FIG. 6A; Compound 1, FIG. 6B).

[3] = Oral rat 4-week toxicity study with toxicokinetics; format: in vivo, Sprague-Dawley rats
Method: Compound 1 (0, 10, 30, and 100 mg/kg/day) was given orally, once daily by gavage to male and female Sprague-Dawley rats for up to 28 days. Morbidity, associated with marked body weight loss, necessitated termination of dosing in the high-dose group on Days 12/13. At this time, 5/sex in the high-dose group were taken to necropsy and 5/sex were started on recovery for the remainder of the study.
There were no obvious sex differences or accumulation (Table 13).
Major histological findings at the interim necropsy (100 mg/kg) included generalized lymphoid depletion, pulmonary edema/inflammation and testicular seminiferous tubule degeneration. All findings except testicular degeneration were reversible (˜14 days) in this study; the reversibility period was not long enough to assess reversibility of testicular changes. […] The STD10 was 30 mg/kg.

[4] = Pharmacokinetics in rats (IV, PO); format: in vivo, rat; conditions: for bioavailability: independent of dose
Source text: Exposure was generally dose proportional.

Caco-2 cells = experiment: Permeation and absorption in Caco-2 cells; format: in vitro ADME
Source text: Further understanding of DDI risk will await definition of Phase 2 doses and exposures.

[5] = Oral dog 4-week toxicity study with toxicokinetics; format: in vivo, beagle dogs; conditions: for HNSTD: 4-week oral
Method: Compound 1 (0, 10, 30, and 100 mg/kg/day) was given orally, once daily by gavage, to male and female beagle dogs (4/sex) for up to 28 days. […] The cause of death in this high-dose male was attributed to myocardial degeneration. This lesion was not observed in any other dog on study. Increases in alkaline phosphatase, globulin, cholesterol, triglycerides and fibrinogen and decreased reticulocyte counts noted in the high-dose group at mid-study returned towards baseline by the end of the study following 11/12 days of recovery. Testicular changes at all doses (seminiferous epithelial vacuolation at 10 and 30 mg/kg and degeneration/atrophy at 100 mg/kg) were not reversible in this short-term study; the reversibility period was not long enough to assess reversibility of testicular changes.
The increases were generally dose-proportional or greater-than dose-proportional on Day 1 and Day 28. Gender difference was not observed. No significant accumulation of Compound 1 or Compound 2 was observed.
Thirty-two beagle dogs (conventional, naive) were divided into four groups. Each group consists of four male and four female. Group 1 beagle dogs were administered vehicle and groups 2-4 beagle dogs were administered Compound 1 at 10 mg/kg, 30 mg/kg, and 100 mg/kg, respectively, by oral gavage once daily for 28 consecutive days (Table 15). […] Cmax (ng/mL) and AUClast (hr*ng/mL) of Compound 1 on day 1 were obtained for groups 2-4 (Table 15).

[6] = In vivo metabolite identification; design: species or system rat, dog and monkey
Source text: In in vivo studies in rat, dog and monkey, 35 metabolites were identified. The major circulating compound in all species was parent compound; parent was also a major component in rat feces. Compound 2, demethylated metabolite, was a major active metabolite in all species in plasma and in rat feces. M34, glutathione conjugation and hydrolysis and acetylation metabolite, was a major metabolite in rat urine. Compound 1 was extensively metabolized during excretion with 31 metabolites in rat urine and 32 metabolites in rat feces.

[7] = both sexes, beagle, in vivo, dog, day 1, oral gavage

Structure (SMILES): C=CC(=O)Nc1cc(Nc2nccc(-n3ccc4cccnc43)n2)c(OC)cc1N(C)CCN(C)C [Compound 1, N-(5-((4-(1H-pyrrolo[2,3-b]pyridin-1-yl)pyrimidin-2-yl)amino)-2-((2-(dimethylamino)ethyl)(methyl)amino)-4-methoxyphenyl)acrylamide]
- IC50 [1]: 170 to 3280 nM
- fold more active than erlotinib (viability) (293-EGFRvIII cells; HEK293-EGFRvIII cells): 3 fold
- fold more active than gefitinib (viability) (293-EGFRvIII cells; HEK293-EGFRvIII cells): 10 fold
- IC50 (293-EGFRvIII cells; 72 h, 3 days treatment, CellTiter-Glo): 1480 nM
- IC50 (293-EGFRvIII cells; unit as printed in b643 for Compound 1): 1480 nM
- Kd (PDGFRA): 1500 nM
- Kd (ALK): 250 nM
- Kd (PDGFRB): 5200 nM
- skin toxicity (visual observation) [2]: Lower Skin Toxicity than Osimertinib
- NOAEL at 28 days ([3]; both sexes, Sprague-Dawley, in vivo, oral, 4-week Rat toxicology): 10 mg/kg
- NOEL for testicular lesions ([3]; both, Sprague-Dawley, rat, in vivo): 10 mg/kg
- STD10 ([3]; both, Sprague-Dawley, rat, in vivo, po): 30 mg/kg
- NOEL for myocardial risk ([3]; rat): 100 mg/kg
- toxicity at 10 mg/kg ([3]; rat, in vivo, po, 10 mg/kg): No toxicity
- clearance [4]: moderately high clearance; also recorded: moderately high-clearance; also recorded: Moderate high-clearance
- volume of distribution [4]: large volume of distribution
- clearance ([4]; listed as Compound 11): relatively high clearance rate
- bioavailability ([4]; rat, in vivo, po): ~50%
- half-life ([4]; rat, plasma, Compound 2 as metabolite): ~5 h
- Tmax ([4]; rat, plasma, po, Compound 2 as metabolite): ~5 h
- bioavailability ([4]; rat, plasma, po): 50%
- permeability in Caco-2 cells (Caco-2 cells): Moderate permeability
- substrate of efflux transporters (Caco-2 cells): not likely a transporter substrate; also recorded: not likely a substrate of efflux transporters; also recorded: not a likely substrate of efflux transporters
- substrate of efflux transporters (Caco-2 cells; listed as Compound 11): unlikely that Compound 11 is a substrate of efflux transporters; also recorded: not a substrate
- mortality ([5]; 100 mg/kg/day, attributed to myocardial degeneration): one male was found dead on Day 13
- Cmax ([5]; beagle, in vivo, po, dog Day 1, 10 mg/kg/day, Female): 142 ng/mL
- AUC(0-t) ([5]; beagle, in vivo, po, dog Day 1, 10 mg/kg/day, Female, read-out: AUClast): 2060 ng·h/mL
- Cmax ([5]; beagle, in vivo, po, dog Day 1, 10 mg/kg/day, Male): 166 ng/mL
- AUC(0-t) ([5]; beagle, in vivo, po, dog Day 1, 10 mg/kg/day, Male, read-out: AUClast): 1650 ng·h/mL
- Cmax ([5]; beagle, in vivo, po, dog Day 1, 30 mg/kg/day, Female): 170 ng/mL
- AUC(0-t) ([5]; beagle, in vivo, po, dog Day 1, 30 mg/kg/day, Female, read-out: AUClast): 1960 ng·h/mL
- Cmax ([5]; beagle, in vivo, po, dog Day 1, 30 mg/kg/day, Male): 317 ng/mL
- AUC(0-t) ([5]; beagle, in vivo, po, dog Day 1, 30 mg/kg/day, Male, read-out: AUClast): 3790 ng·h/mL
- Cmax ([5]; beagle, in vivo, po, dog Day 1, 100 mg/kg/day, Female): 293 ng/mL
- AUC(0-t) ([5]; beagle, in vivo, po, dog Day 1, 100 mg/kg/day, Female, read-out: AUClast): 4060 ng·h/mL
- Cmax ([5]; beagle, in vivo, po, dog Day 1, 100 mg/kg/day, Male): 367 ng/mL
- AUC(0-t) ([5]; beagle, in vivo, po, dog Day 1, 100 mg/kg/day, Male, read-out: AUClast): 5190 ng·h/mL
- NOAEL ([5]; both sexes, beagle, in vivo, oral, 4-week Dog toxicology): 10 mg/kg
- Tmax [5, 7]: 4 h
- half-life [5, 7]: 8 h
- NOEL for myocardial risk ([5]; dog): 30 mg/kg
- HNSTD ([5]; dog): 30 mg/kg
- HNSTD ([5]; dog, estimated): 30 mg/kg/day
- Cmax ([5]; female, beagle, in vivo, dog Day 28 mean, 10 mg/kg Compound 1 PO, F, Compound 2 as metabolite): 867 ng/mL
- AUC(0-t) ([5]; female, beagle, in vivo, dog Day 28 mean, 10 mg/kg Compound 1 PO, F, Compound 2 as metabolite, read-out: AUC0-24): 6540 ng·h/mL
- Cmax ([5]; female, beagle, in vivo, dog Day 28 mean, 30 mg/kg Compound 1 PO, F, Compound 2 as metabolite): 508 ng/mL
- AUC(0-t) ([5]; female, beagle, in vivo, dog Day 28 mean, 30 mg/kg Compound 1 PO, F, Compound 2 as metabolite, read-out: AUC0-24): 3490 ng·h/mL
- human equivalent dose (HED) of the NOEL for myocardial risk ([5]; from dog NOEL 30 mg/kg): 15 mg/kg
- Cmax ([5]; male, beagle, in vivo, dog Day 28 mean, 10 mg/kg Compound 1 PO, M, Compound 2 as metabolite): 578 ng/mL
- AUC(0-t) ([5]; male, beagle, in vivo, dog Day 28 mean, 10 mg/kg Compound 1 PO, M, Compound 2 as metabolite, read-out: AUC0-24): 3880 ng·h/mL
- Cmax ([5]; male, beagle, in vivo, dog Day 28 mean, 30 mg/kg Compound 1 PO, M, Compound 2 as metabolite): 974 ng/mL
- AUC(0-t) ([5]; male, beagle, in vivo, dog Day 28 mean, 30 mg/kg Compound 1 PO, M, Compound 2 as metabolite, read-out: AUC0-24): 7180 ng·h/mL
- number of metabolites in rat feces ([6]; in vivo): 32
- number of metabolites in rat urine ([6]; in vivo): 31
- number of metabolites identified in vivo ([6]; rat, dog and monkey): 35
